Measured values as given in patent publication US8710098B2, “Group of amino substituted benzoyl derivatives and their preparation and their use” (priority 2008, dated 2014).
Converted amounts (≈) assume the structure as drawn.

Columns and labels:
HIV-1 [1] = details: HIV-1 P24 antigen in supernatant 4 days (96 h) after addition of compounds
Description: (§1) The inhibitory activities of the compounds proposed in this invention to HIV-1 were measured using HIV-1 P24 antigen kit.
(§2) DMSO solutions of samples of test compounds listed in Table 2 diluted to 8 different concentrations and the solution of the positive control AZT (azidothymidine, 0.15 ng/ml) are respectively added into 96 well plates, duplications are set for each of the dilutions, and negative control samples are also made. Aliquots of 100 μl 2×10^5 cell/ml suspension are inoculated onto the 96 well cell culture plates and cultured in an incubator under a condition of 37° C., 5% CO2 and saturated humidity. The pathologic changes of the cells are observed every day. The HIV-1 P24 antigen contents in supernatant cells are measured in 4 days (96 h) after addition of the test compounds according to the operation procedure provided by the HIV-1 P24 antigen kit.

[2] = molecular target: T1, hA3G degradation mediated by HIV-1 Vif (UniProt P69723+Q9HC16); test: Screening experiment for up-regulation activity to hA3G (YFP-fused hA3G co-expressed with HIV-1 Vif, fluorescence); assay type: cell-based, human; details: YFP fluorescence of cells co-expressing Vif and hA3G-YFP; excitation 485 nm, detection 520 nm; averages of duplicates
T1 construct: expressed in transfected cells
T1 sequence (P69723 whole entry, the tested form may be a part): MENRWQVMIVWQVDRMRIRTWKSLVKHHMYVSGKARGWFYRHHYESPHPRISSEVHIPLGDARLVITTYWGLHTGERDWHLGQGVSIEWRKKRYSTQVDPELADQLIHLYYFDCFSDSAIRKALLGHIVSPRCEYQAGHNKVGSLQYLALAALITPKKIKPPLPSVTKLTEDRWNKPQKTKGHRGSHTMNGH
T1 sequence (Q9HC16 whole entry, the tested form may be a part): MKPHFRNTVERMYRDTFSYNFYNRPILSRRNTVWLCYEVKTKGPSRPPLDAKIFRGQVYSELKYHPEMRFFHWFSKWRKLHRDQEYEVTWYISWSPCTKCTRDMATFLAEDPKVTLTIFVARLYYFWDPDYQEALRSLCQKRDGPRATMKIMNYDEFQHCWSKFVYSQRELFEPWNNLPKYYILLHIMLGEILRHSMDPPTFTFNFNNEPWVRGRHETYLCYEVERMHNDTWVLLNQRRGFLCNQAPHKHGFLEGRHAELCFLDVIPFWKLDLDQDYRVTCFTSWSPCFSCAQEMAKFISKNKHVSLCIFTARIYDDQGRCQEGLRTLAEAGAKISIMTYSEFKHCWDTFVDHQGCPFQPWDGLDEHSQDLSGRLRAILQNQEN
Excerpt: Based on the advances making research on the hA3G degradation mediated by HIV-1 Vif, this invention establishes a high throughput anti-HIV-1 drug screening model using hA3G degradation mediated by HIV-1 Vif as target, to screen small molecule active compounds capable of inhibiting this degradation process. The function principle of this model is that HIV-1 Vif protein and hA3G fused yellow fluorescent protein (YFP) co-expressed in the cells, then the intracellular fluorescence intensity (at […]) decreases owing to the degradation of hA3G caused by Vif and subsequent degradation of YEP fused on hA3G. By means of measuring the change of fluorescent intensity, the influence of the screened compounds on the degradation of hA3G caused by Vif can quantitatively be analyzed. Simultaneously, to differentiate the non-specific inhibitory effect of diverse ubiquitin degradation route in the samples, this invention establishes a recheck model based on the detection of P53 degradation caused by the product of adenovirus early gene, to assure that the positive samples screened out by the proposed model can specifically block the degradation of hA3G caused by Vif.
Screening Experiment for Up-Regulation Activity to hA3G
The cells are picked up and cultured a culture bottle. When the cells grow full of the culture bottle, old culture medium is discarded and the cells are digested with digestion medium. When the cells turn round, the digestion medium is discarded and the culture medium is added in at once, the bottom of the bottle is gently blown with a pipette to make the cells disengage the bottle bottom and disperse into single cell suspension. After counting the cells using blood cell counting chamber, the cell suspension is inoculated into a culture dish for transfection. The medium containing the plasmid to be transfected and the transfection reagents is gently mixed up and incubated at room temperature. The medium is then added into the supernatant of the cell culture and cultured for a certain period of time. The old culture medium is then sucked out, the cells are digested with digestive medium, the digestive medium is subsequently discarded and culture medium is immediately added. The medium is gently blown to disperse the cells into single cell suspension. After counting the cells using blood cell counting chamber, the cells are ready for inoculation.
Samples of compounds[…]Pure tested compounds are dissolved in DMSO, the solution is diluted with equal proportional distilled water. The diluent is used to test the cell systems.
Sample solution of different concentration is added into the supernatant of a cell culture. After the cells are continuously cultured, old culture medium is sucked out and the cells are blown with PBS buffer until the cells completely disengage from the culture bottle.
The fluorescence intensity values of the cell suspension with test compound samples, positive control samples and negative control samples are respectively measured with fluorometer, the excitation wavelength is 485 nm and the detection wavelength 520 nm. Averages of duplicated measurements are taken as the results.
The measured fluorescence intensity values of the negative control samples (blink sample) subtracted from those of test compound samples, the results are taken as YFP fluorescence of different groups. Relative fluorescence intensity=fluorescence intensity of a test sample group/fluorescence intensity of the positive control group×100% Inhibition rate of degradation=(test sample group−negative control group)/(positive control group−negative control group)×100%

HIV-1 [3] = test: microbe, parasite or virus in culture; details: Human immunodeficiency virus 1, 96 h, read-out: inhibitory activity to HIV-1, IC50
Description: as §1, §2

3-amino-4-methoxybenzanilide [Compound 2621]
inhibitory activity to HIV-1, IC50 (HIV-1 [1]): <0.0137 µg/mL
hA3G up-regulation activity (%) [2]: 36.2%

COc1ccc(C(=O)Nc2cc(OC)c(OC)c(OC)c2)cc1NC(=O)C(C)Br (stereo not shown) [Compound 26]
IC50 (HIV-1 [3]): 0.0203 µg/mL (≈ 0.0434 µM)
hA3G up-regulation activity (%) [2]: 42.7%

COc1ccc(C(=O)Oc2cc(OC)c(OC)c(OC)c2)cc1NC(=O)C(C)Br (stereo not shown) [Compound 35]
IC50 (HIV-1 [3]): 0.0223 µg/mL (≈ 0.0476 µM)
hA3G up-regulation activity (%) [2]: 44.9%

CCC(=O)Nc1cc(C(=O)Nc2ccc(OC(F)(F)F)cc2)ccc1C [Compound 69, N-(4′-trifluoromethoxyphenyl)-3-propionamido-4-methylbenzamide]
hA3G up-regulation activity (%) [2]: 31.2%

CCC(=O)Nc1cc(C(=O)Nc2ccc(OC(F)(F)F)cc2)ccc1F [Compound 70]
hA3G up-regulation activity (%) [2]: 24.7%

COc1cc(OC(=O)c2cc(Cl)cc(NC(C)=O)c2)cc(OC)c1OC [Compound 72]
hA3G up-regulation activity (%) [2]: 24.3%

COc1cc(OC(=O)c2cc(NC(C)=O)cc(C(F)(F)F)c2)cc(OC)c1OC [Compound 73, 3′,4′,5′-trimethoxyphenyl 3-acetamido-5-trifluoromethylbenzoate]
hA3G up-regulation activity (%) [2]: 29.0%

COc1cc(NC(=O)c2cc(NC(C)=O)cc(C(F)(F)F)c2)cc(OC)c1OC [Compound 74]
hA3G up-regulation activity (%) [2]: 8.5%

CCC(=O)Nc1cc(C(=O)Nc2cc(OC)c(OC)c(OC)c2)cc(OC)c1F [Compound 75, N-(3′,4′,5′-trimethoxyphenyl)-3-propionamido-4-fluoro-5-methoxybenzamide]
hA3G up-regulation activity (%) [2]: −1.1%

CCC(=O)Nc1cc(C(=O)Nc2cc(OC)c(OC)c(OC)c2)cc(F)c1OC [Compound 77]
hA3G up-regulation activity (%) [2]: 14.9%

CCC(=O)Nc1cc(C(=O)Nc2ccc(OC)c(F)c2)ccc1OC [Compound 78]
hA3G up-regulation activity (%) [2]: 8.8%

CCC(=O)Nc1cc(C(=O)Nc2cc(OC)c(OC)c(OC)c2)c(F)cc1OC [Compound 79, N-(3′,4′,5′-trimethoxyphenyl)-3-propionamido-4-methoxy-6-fluorobenzamide]
hA3G up-regulation activity (%) [2]: 21.6%

CCC(=O)Nc1cc(C(=O)Nc2ccc(N)c(F)c2)ccc1OC [Compound 80, N-(3′-fluoro-4′-aminophenyl)-3-propionamido-4-methoxybenzamide]
hA3G up-regulation activity (%) [2]: 37.1%

CCC(=O)Nc1cc(C(=O)Nc2cc(OC)c(NC)c(OC)c2)ccc1OC [Compound 81]
hA3G up-regulation activity (%) [2]: 14.4%

CCC(=O)Nc1cc([S+]([O-])Nc2cc(OC)c(OC)c(OC)c2)ccc1OC (stereo not shown) [Compound 82]
hA3G up-regulation activity (%) [2]: 28.5%

CCC(=O)Nc1cc(S(=O)(=O)Nc2cc(OC)c(OC)c(OC)c2)ccc1OC [Compound 83, N-(3′,4′,5′-trimethoxyphenyl) 3-propionamido-4-methoxybenzenesulfamide]
hA3G up-regulation activity (%) [2]: 31.0%

CCC(=O)Nc1cc(S(=O)(=O)Oc2cc(OC)c(OC)c(OC)c2)ccc1OC [Compound 84, 3′,4′,5′-trimethoxyphenyl 3-propionamido-4-methoxybenzenesulfonate]
hA3G up-regulation activity (%) [2]: 9.0%

COc1ccc(S(=O)(=O)Nc2cc(OC)c(OC)c(OC)c2)cc1N [Compound 85, N-(3′,4′,5′-trimethoxyphenyl)-3-amino-4-methoxybenzenesulfonamide]
hA3G up-regulation activity (%) [2]: 6.8%

CCC(=O)Oc1cc(C(=O)Nc2cc(OC)c(OC)c(OC)c2)ccc1OC [Compound 86]
hA3G up-regulation activity (%) [2]: 20.3%

COc1ccc(C(=O)Nc2cc(OC)c(OC)c(OC)c2)cc1O [Compound 87, N-(3′,4′,5′-trimethoxyphenyl)-3-hydroxyl-4-methoxybenzamide]
hA3G up-regulation activity (%) [2]: 19.7%

CCC(=O)Nc1cc(NNc2cc(OC)c(OC)c(OC)c2)ccc1OC [Compound 89]
hA3G up-regulation activity (%) [2]: 31.3%

COc1ccc(S(=O)(=O)Nc2cc(OC)c(OC)c(OC)c2)cc1O [Compound 90]
hA3G up-regulation activity (%) [2]: 28.2%

CCC(=O)Nc1cc(NS(=O)(=O)c2cc(OC)c(OC)c(OC)c2)ccc1OC [Compound 91, N-(3′-propionamido-4′-methoxyphenyl)-(3,4,5-trimethoxy)benzenesulfonamide]
hA3G up-regulation activity (%) [2]: 16.6%

CCC(=O)Nc1cc(NS(=O)(=O)c2cc(OC)nc(OC)n2)ccc1OC [Compound 92]
hA3G up-regulation activity (%) [2]: 23.7%

CCC(=O)Nc1cc(S(=O)(=O)Nc2cc(OC)nc(OC)n2)ccc1OC [Compound 93]
hA3G up-regulation activity (%) [2]: 34.2%

CCC(=O)Nc1cc(S(=O)(=O)Nc2ccc(OC)c(OC)c2)ccc1OC [Compound 94]
hA3G up-regulation activity (%) [2]: 16.1%

CCC(=O)Nc1cc(S(=O)(=O)Nc2ccc(OC)c(OC)c2)cc(F)c1OC [Compound 95]
hA3G up-regulation activity (%) [2]: 8.7%

CCC(=O)Nc1cc(S(=O)(=O)Nc2ccc(NC)c(OC)c2)ccc1OC [Compound 96]
hA3G up-regulation activity (%) [2]: 6.9%

CCC(=O)Nc1cc(C(=O)Nc2ccc(OC)c(S(N)(=O)=O)c2)ccc1OC [Compound 97]
hA3G up-regulation activity (%) [2]: 6.4%

CNc1cc(C(=O)Nc2ccc(S(N)(=O)=O)c(F)c2)ccc1OC [Compound 98, N-(3′-fluoro-4′-aminosulfonylphenyl)-3-methylamino-4-methoxybenzamide]
hA3G up-regulation activity (%) [2]: 5.8%

CCC(=O)Nc1cc(C(=O)Nc2ccc(S(N)(=O)=O)c(OC)c2)ccc1OC [Compound 99]
hA3G up-regulation activity (%) [2]: 23.6%

CCC(=O)Nc1cc(C(=O)Nc2ccc(S(N)(=O)=O)c(F)c2)ccc1OC [Compound 100]
hA3G up-regulation activity (%) [2]: 13.6%

COc1ccc(C(=O)Nc2cc(OC)c(OC)c(OC)c2)cc1NS(C)(=O)=O [Compound 101]
hA3G up-regulation activity (%) [2]: 22.1%

COc1ccc(C(=O)Nc2ccc(OC)c(OC)c2)cc1NS(C)(=O)=O [Compound 102]
hA3G up-regulation activity (%) [2]: 10.3%

COc1ccc(C(=O)Oc2cc(OC)c(OC)c(OC)c2)cc1NS(C)(=O)=O [Compound 103, 3′,4′,5′-trimethoxyphenyl 3-methanesulfamido-4-methoxybenzoate]
hA3G up-regulation activity (%) [2]: 26.1%

CCC(=O)Nc1cc(C(=O)Nc2cc(OC)c(OC)c(OC)c2)ccc1OC [Compound 261, N-(3′,4′,5′-trimethoxyphenyl) 3-propionamido-4-methoxybenzamide]
IC50 (HIV-1 [3]): 0.0227 µg/mL (≈ 0.0584 µM)
hA3G up-regulation activity (%) [2]: 43.9%

COc1ccc(C(=O)Nc2cc(OC)c(OC)c(OC)c2)cc1N [Compound 262, N-(3′,4′,5′-trimethoxyphenyl) 3-amino-4-methoxybenzamide]
IC50 (HIV-1 [3]): 0.0244 µg/mL (≈ 0.0734 µM)
hA3G up-regulation activity (%) [2]: 36.2%

COc1ccc(C(=O)Nc2cc(OC)c(OC)c(OC)c2)cc1NC(=O)C(F)(F)F [Compound 263, N-(3′,4′,5′-trimethoxyphenyl)-3-trifluoroacetamido-4-methoxybenzamide]
IC50 (HIV-1 [3]): < 0.0137 µg/mL
hA3G up-regulation activity (%) [2]: 24.4%

CCC(=O)Nc1cc(C(=O)Oc2cc(OC)c(OC)c(OC)c2)ccc1OC [Compound 351, 3′,4′,5′-trimethoxyphenyl 3-propionamido-4-methoxybenzoate]
IC50 (HIV-1 [3]): 0.0299 µg/mL (≈ 0.0768 µM)
hA3G up-regulation activity (%) [2]: 36.7%

COc1ccc(C(=O)Oc2cc(OC)c(OC)c(OC)c2)cc1NC(=O)C(F)(F)F [Compound 353, 3,4,5-trimethoxyphenyl 3-trifluoroacetamido-4-methoxybenzoate]
hA3G up-regulation activity (%) [2]: 39.0%

CCC(=O)Nc1cc(C(=O)Nc2ccc(OC)cc2)ccc1OC [Compound 2611, N-(4′-methoxyphenyl)-3-propionamido-4-methoxybenzamide]
IC50 (HIV-1 [3]): 0.017 µg/mL (≈ 0.0518 µM)
hA3G up-regulation activity (%) [2]: 28.9%

CCC(=O)Nc1cc(C(=O)Nc2ccc([N+](=O)[O-])cc2)ccc1OC [Compound 2612, N-(4′-nitrophenyl)-3-propionamido-4-methoxybenzamide]
hA3G up-regulation activity (%) [2]: 22.3%

CCC(=O)Nc1cc(C(=O)Nc2ccc(Cl)cc2)ccc1OC [Compound 2613, N-(4′-chlorophenyl)-3-propionamido-4-methoxybenzamide]
IC50 (HIV-1 [3]): 0.0138 µg/mL (≈ 0.0415 µM)
hA3G up-regulation activity (%) [2]: 27.8%
